Measured values published in patent US11479604B2, “Immunomodulatory peptides and methods for modulating the immune system in a subject” (Recepta Biopharma S.A., priority 2017, dated 2022).

What was measured:
[1] = test system: B16F10-Nex2 melanoma cells; experiment: Syngeneic metastatic melanoma model, lung nodule count; assay type: in vivo, C57BL/6 mice
Procedure: Male C57BL/6 mice, 6 to 8-week-old were obtained from the Center for Development of Experimental Models (CEDEME), Federal University of Sao Paulo (UNIFESP). For the in vivo metastatic model, C57BL/6 mice received one intravenous (i.v.) injection of 2×10^5 viable B16-F10-Next melanoma cells in 100 μL. […] The control group received 100 μL PBS. Twenty-two days later, mice (minimum n=3 per group) had their lungs harvested, and the number of macroscopic melanotic nodules were counted. The Ethical Committee of Federal University of São Paulo, Project no. 1234, 2011, approved all experiments with animals, according to International guidelines. For the subcutaneous model, mice were injected with 5×10^5 tumor cells suspended in 100 μL of PBS in the right flank via the subcutaneous route. The peptide (300 μg) was solubilized in 10 μL of distilled H2O and 90 μL of PBS and injected per mouse via the intraperitoneal route. The administration of the peptide was performed in 5 alternate days initiating one day after tumor challenge. Tumor longitudinal diameter (D) and transverse diameter (d) were measured every 2 days until the tumor volume reached 3,000 mm3. Animals were sacrificed when the allowed volume was reached. Volume was calculated using the formula v=Dd^2×0.52. Tumor Cell Growth In Vitro and In Vivo Details of the in vitro tumor cell growth, cytotoxicity tests, determination of viable cells and in vivo protection experiments with B16F10 cells in a mouse metastatic model are described in Polonelli et al. (PLoS One. 3(6):e2371, 2008) and Dobroff et al. (Transl. Onc., 3: 204-217, 2010).
6 to 8 Week-old C57BL/6 mice (n=5, per group) were intravenously challenged with 1×10^5 of syngeneic B16F10-Nex2 viable cells in 0.1 mL of RPMI medium without FBS, and treated on the next day with intraperitoneal doses of 300 μg (10 mg/kg) each, of Scr1, Scr2, Scr3 or Scr4 peptide or with the control vehicle (PBS) in alternate days, total of 5 doses. After 14 days, mice were euthanized, and lungs were harvested and assessed for metastatic colonization. The number of metastatic lesions was quantified using a stereo microscope (Nikon, Tokyo). The percentage of the tumor area/total area was also quantified by ImageJ software.
B16F10-Nex2 tumor cells (2×10^5) in RPMI (100 μl) were injected in both animal groups in the tail veins on day 0. Animals were sacrificed on day 22, or 10 days after the last administration of the peptide, and their lungs were examined for dark melanotic nodules.
C57Bl6 mice were intravenously challenged with 4×10^5 syngeneic B16F10-Nex2 cells in 0.1 ml of RPMI without FBS.
Mice were injected with 5×10^5 B16F10-Nex2 cells i.v. suspended in 100 μl PBS. […] Imiquimod at 50 μg/100 μl was injected i.p. in 3 alternate days; CpG ODN 1585, i.p., in two alternate days; and Poly (I:C), i.p., in two alternate days. After 15 days of tumor challenge, the animals were sacrificed, the lungs were removed and the pulmonary nodules were counted.

[2] = test system: B16F10-Nex2 melanoma cells; conditions: as determined in U.S. Pat. No. 9,193,797 B2; cited from earlier work
[3] = test system: CD11c+, MHC II+ bone marrow DCs; experiment: Marker expression of bone marrow DCs with or without Poly I:C (flow cytometry); assay type: cell-based, C57Bl6 mice; conditions: 60 h
Procedure: DCs were obtained from the bone marrow of 6 to 8-week-old C57Bl6 mice. Briefly, femora and tibiae from mice were removed and stripped of muscles and tendons; both bone ends were cut and bone marrow was flushed out with RPMI 1640 medium using a 21-gauge needle and syringe. Cell clusters were dissociated by passing through a cell strainer and 0.45 M ammonium chloride was added for red cell lysis. After washing the cell suspension twice in RPMI 1640, 10×10^6 bone marrow cells per well were cultured in non-treated tissue-culture 6-well plates with 4 ml of complete medium (RPMI 1640 supplemented with 2 mM glutamine, 10,000 U/mL penicillin, 10 mg/mL streptomycin, 50 μM 2-mercaptoethanol, 10% heat-inactivated fetal calf serum with GM-CSF (50 ng/ml). Half of the medium was removed on day 2 and new medium supplemented with GM-CSF (100 ng/ml) and warmed at 37° C. was added. The culture medium was entirely discarded on day 3 and replaced by fresh warmed medium with GM-CSF (50 ng/ml). On day 6, non-adherent cells in the culture supernatant and loosely adherent cells harvested by gentle washing with PBS were pooled and used as the starting cell source for the experiments.
For murine cell analysis, these were stained in ice-cold PBS containing BSA (0.5%) and EDTA (2 mM) using appropriate antibody-fluorophore conjugates. Multiparameter analysis was performed on a BD FACSCanto II analyzer (BD Biosciences) and analyzed with FlowJo software (Tree Star). The following antibodies were used: anti-MHC Class II, anti-CD11c, anti-CD8a, anti-CD3e, anti-CD4, anti-CD86, anti-CD40, anti-CD80, Prior to acquisition, cells were resuspended in PBS/BSA 0.5%/EDTA (2 mM).
DCs were centrifuged and washed once with MACS buffer. Cells (10^6) were resuspended in 45 μl of buffer and 5 μl of antibodies/fluorophore, CD11c APC, MHC II PE, CD80 FITC, CD86 VioBlue and CD40 PE. The samples were acquired in BD FACS Canto II using the FacsDiva software. The data were analyzed by using the FlowJo software.

[4] = 100 μg/ml peptide + 12.5 μg/ml Poly I:C

## [CARGETARATFAYWGQGC], NH2 (C-C) [Rb9]
[1]; 50-100 μg i.p. doses
  protection in the metastatic model: significant protection
[1]; i.d. route compared with i.p. and i.v.
  efficiency of administration route for antitumor protection: mostly efficient
[1]; i.p., alone, Rb9 300 μg 5 consecutive days, Imiquimod 50 μg 3 alternate days, CpG and Poly (I:C) two alternate days, 15 days after challenge
  antitumor activity (pulmonary nodules): Antitumor activities of Rb9 and Imiquimod were the same
[1]; i.p., 15 days after challenge
  antitumor activity of the combination of Rb9 and Imiquimod: not additive
[1]; immunocompetent C57Bl6 mice, 250 μg i.p. on days 1,3,5,7,9,11, lungs on day 22
  number of lung tumor cell nodules (protection): clearly protective
[1]; metastatic model
  best concentrations for protection, dose range per animal: 200 to 300 µg
[2]
  in vivo protection against metastatic melanoma by CDRs of RebMab200: displayed this in vivo protection
[3]; [4]
  CD40 expression over Poly I:C: stimulated CD40 over Poly I:C much like Rb9
  CD86 expression over Poly I:C: stimulated CD86 over Poly I:C
[3]; 100 μg/ml peptide, with or without Poly I:C
  expression of CD80: similar
